Series [1] is described as follows: Stability of sterol against precipitation in medium. Format: physicochemical. On the procedure: The optimum sterol for cell culture should meet the following specifications: a) be stable against precipitation in medium at 37° C., b) stimulate cell growth and viability as well as does cholesterol, or better, and c) for adherent cells: produce a high surface tension in the medium for optimum adherence of the cells to the surface by hydrophobic forces.

The subject of series [2] is Vero, CHO-K1 and 1E6 hybridoma cells. The series is described as follows: Cell growth and morphology in media containing sterols other than cholesterol (Example 8). The conditions noted are these: test concentration 2 μg/ml. It counts as cell-based. Here is the method:
The basal media used were DME/F12 for adherent cells, and RPMI-X for suspension cells. The basal media were supplemented by SSR2 described above, i.e. a solution containing 20 mg/ml PLURONIC F68, about 4 mM EDTA, about 3 mM Fe, about 40 mM sodium citrate/citric acid, about 3 mM aurintricarboxylic acid and about 1% trace elements. […] For hybridoma cells, this was still further supplemented by ethanolamine at 20 μM. Each cul-ture was run in duplicate. As a control, cholesterol was also used, but in this case the basal medium was supplemented by ‘Solution Cx’ or ‘Solution Dx’ described above, as appropriate to the cell type. The negative controls referred to below were in each case a cell culture containing no test substance (sterol). Cells were cultivated through 2 passages for adherent cells, and 3 passages for the hybridoma line having regard to the greater difficulty of morphological scoring in suspension cultures, this being compensated by the longer culture period. All cultures of the same experiment were subcultured using an identical split ratio, for example 1:10; this ratio being adjusted in the individual experiments to suit the growth rate of the positive control (see above). […] Then adherent cells were trypsinized and subcultured further for the second passage—followed by counting the number of cells when confluent for the second time. Hybridoma cells, growing in suspension, were simply diluted in medium for each new passage. Counting of all kinds of cells were generally performed using a standard Bürker chamber, and viability determined by Trypan Blue exclusion (only viable cells were counted). In some experiments, where feasible, cells were counted directly in the microscope viewing field using a calibrated grid. […] The morphological index is mainly based on three properties: single cell morphology, number of cells, and the degree of uniform distribution of cells around the culture surface (‘cellular behaviour’).

Series [3] is described as follows: Surface tension of the medium. Format: physicochemical.
The next series deals with 1E6 Mouse hybridoma. The series is described as follows: Sterol analogues in suspended cell culture (Example 8). Format: cell-based. The conditions noted are these: test concentration 2 μg/ml.
The next series deals with Hybridoma cells. The series is described as follows: Growth promoting effect of alcohols on hybridoma cells (Example 1). Format: cell-based, Mouse. The conditions noted are these: for effect on cell growth (inhibition of cell growth): RPMI-SR3 protein-free medium, alcohol up to 1.0% by vol. On the procedure: • a) Hybridoma cells were cultured in RPMI 1640 supplemented with solutions A and B, described above plus 20 mM ethanolamine (referred to as RPMI-SR3), and by way of comparison in the same medium further supplemented with 10 mg/ml albumen (5% by vol.) or in RPMI 1640 supplemented with 10% v/v horse serum.

In the next series the test system is adherent cells. Kind of series: Growth stimulating effect of alcohols in adherent cell culture (Example 10). Format: cell-based. The conditions noted are these: concentrations around 0.1%. From the text:
Cell culture was again carried out as described in Example 8, but with the addition of a number of alcohols rather than sterols.
Test concentration: 1×=0.1%, or 5×=0.5%.

Entries after “also recorded” stand apart in the source; their conditions may differ.

Procedure for 1E6 Mouse hybridoma: The basal media were supplemented by SSR2 described above, i.e. a solution containing 20 mg/ml PLURONIC F68, about 4 mM EDTA, about 3 mM Fe, about 40 mM sodium citrate/citric acid, about 3 mM aurintricarboxylic acid and about 1% trace elements. […] Each cul-ture was run in duplicate. As a control, cholesterol was also used, but in this case the basal medium was supplemented by ‘Solution Cx’ or ‘Solution Dx’ described above, as appropriate to the cell type. The negative controls referred to below were in each case a cell culture containing no test substance (sterol).

`CC(C)CCC[C@@H](C)[C@H]1CC[C@H]2[C@@H]3CC=C4C[C@@H](O)CC[C@]4(C)[C@H]3CC[C@]12C` [Cholesterol]: in series [1], the stability in medium result is recorded as “somewhat unstable in media”. Moreover, the “solubility in the final medium at storage temperature” value in series [1] (4° C., with PLURONIC F68 and ethanol) is “kept in solution”. Moreover, the “solubility in the final medium at cultivation temperature” value in series [1] (37° C., cell density below 10^5 cells/ml) was “gradually precipitate”.
On to `CC(=O)O[C@H]1CC[C@@]2(C)C(=CC[C@H]3[C@@H]4CC[C@H]([C@H](C)CCCC(C)C)[C@@]4(C)CC[C@@H]32)C1` [Cholesteryl Acetate], for which the “cell growth and viability / suitability as replacement of cholesterol” value in series [2] is listed as “barely affected”; in series [2] (listed as cholesteryl acetate) it was “good results”. Besides, the stability in medium result in series [1] was “stable in solution”.
For the compound `C[C@H](CCC(=O)O)[C@H]1CC[C@H]2[C@@H]3[C@H](O)C[C@@H]4C[C@H](O)CC[C@]4(C)[C@H]3C[C@H](O)[C@]12C` [Cholic acid], the “surface tension of the medium” value in series [3] is recorded as “low surface tension”. Moreover, the “substitution for cholesterol in suspended cell culture” value with 1E6 Mouse hybridoma was “appears possible to substitute cholic acid for cholesterol”.
Take `CCO` [Ethanol]: the “effect on cell growth (inhibition of cell growth)” value in the series with Hybridoma cells was “positive effects on cell growth”; in the series on Hybridoma cells (listed as ethanol) it was “negative inhibition (i.e. promotion) of cell growth”. Besides, the “growth promoting effect in protein or serum supplemented media” value in the series on Hybridoma cells (medium with 10 mg/ml albumen or 10% v/v horse serum) is given as “no growth promoting effect; also recorded: not apparent”. For the same compound, the “effects on cell growth and viability” value with adherent cells was “positive effects on cell growth and viability”.
On to `OCCO` [Ethylene Glycol], for which the “effects on cell growth and viability” value in the series on adherent cells was “positive effects on cell growth and viability”.
As for `CO` [Methanol], the “effect on cell growth (inhibition of cell growth)” value with Hybridoma cells is recorded as “positive effects on cell growth”.
On to `CC(O)CO` (centres unmarked) [propylene glycol], for which the “effects on cell growth and viability” value in the series on adherent cells was “positive effects on cell growth and viability”.
Consider `CC[C@H](CC[C@@H](C)[C@H]1CC[C@H]2[C@@H]3CC=C4C[C@@H](O)CC[C@]4(C)[C@H]3CC[C@]12C)C(C)C` [β-sitosterol], for which the “cell growth and viability / suitability as replacement of cholesterol” value in series [2] was “functions well as a stimulant of cell growth and viability”. In addition, the stability in medium result in series [1] is on record as “less than satisfactory”.

The record behind these values is patent US20050227355A1, “Serum-free cell culture media” (priority 1996, published 2005).
